# Laboratory results taken from patent US6077872A (priority 1998, dated 2000).
# Entries after “also recorded” stand apart in the source; their conditions may differ. Like-named read-outs stand apart in the source and are kept apart here.
# How the values were obtained:
# rickets-babies = details: for craniomalacia, babies with symptom after the beginning of test: before test 3 (threonate), 4 (carbonate); for pillow-bald, babies with symptom after the beginning of test: before test 9 (threonate), 9 (carbonate); for night-sweat, babies with symptom after the beginning of test: before test 12 (threonate), 13 (carbonate)
# Experimental: Fourty rickets-babies at the age of 3-10 months were randomly divided into 2 groups of 20 babies each. […] Test group II, namely the calcium carbonate group, were administered orally calcium carbonate twice a day in a dosage of one bag each time. Each bag of the two kind of calcium preparations contained the same amount of element calcium, namely 150 mg element calcium.
# (1) Clinic symptoms mainly included the normal symptoms of rickets-babies such as night-sweat, pillow-bald, craniomalacia, etc.
# [1] = dog, in vivo
# ovariectomized rats = details: for serum Ca / serum P / serum Tr-ACP (in Bessey-Loury unit) / serum AKP (in Bessey-Loury unit): 75 days; for serum Ca: model-control 1.40 ± 0.72; for serum P: model-control 1.91 ± 0.34; for serum Tr-ACP (in Bessey-Loury unit): model-control 8.4 ± 2.8; for serum AKP (in Bessey-Loury unit): model-control 50.3 ± 15
# Experimental: (3) Pure synthetic low-calcium diet was formulated by mixing 40% fine wheat flour, 40% maize flour, 10% tyroprotein, 5% peanut oil, 3% AIN-76 mixed salts, 1% AIN-76 mixed vitamins, 1% cellulose and 0.3% DL-methionine, in which the calcium salt in AIN-76 mixed salts was replaced by glucose, and this preparation contains 64 mg calcium/100 g.
# The test period was 75 days.
# (§1) Serum Ca, P and AKP were measured by a 4010 Automatic Biochemical Analyzer. Serum Ca was determined by calorimetric method using methylthymol blue. Serum P was determined by Mono-Reagent Method. Alkaline phosphatase was determined by method of disodium p-nitrophenylphosphonate (AKP) The tartaric-resistant acidic phosphatase (Tr-ACP) mineral was determined by Piedra procedure. All above reagent-box were available from the Clinical Chemicals Sub-plant of Beijing Chemical Plant.
# [2] = test system: ovariectomized rats with osteoporosis; assay: Test II: bone mineral density of femur in ovariectomized rats; details: for bone density F50: center of femur; for bone density F20: proximal position 20%, model-control 0.256 ± 0.022
# Experimental: Female 3-month-aged rats which had been excised of bilateral ovaries under sterilized condition were fed for a week until their wound was cured. Seventy healthy rats were selected and divided randomly into five groups of 14 rats. […] Group 1-5 were administered one time per day and 6 times per week and were also fed low-calcium diet and de-ionized water. The test period was 75 days. […] The bilateral femurs of rats were stripped off and stored in refrigerator. After the measurement of the bone mineral density, the left femur was stored for analysis of biomechanical characteristics.
# (4) Measurement of bone mineral density. Fresh femur iced in refrigerator was measured of bone mineral content at the center (F50) and the proximal position 20% (F20) of femur by single photon absorptiometry (Model BMD400GI) with a scanning speed of 0.25 mm/s and a precision degree of 99%, the Apparatus was proofread using a standard apparatus provided by Jishuitan Hospital, Beijing. The data was processed by software used clinically. The bone mineral content was expressed by a unit of bone mineral content per square centimeter (BMC/cm^2).
# [3] = test system: ovariectomized rats with osteoporosis; assay: Test II: dry femur weight, ash weight and calcium content in ovariectomized rats; details: for ash weight: model-control 282.3 ± 30.5; for calcium content: model-control 341.9 ± 43.9; for dry femur weight: model-control 493.4 ± 28.1
# Experimental: Female rats at the age of 3 months were excised of bilateral ovaries under sterilized condition, and were then fed low-calcium diet and offered with deionized water for 75 days, thus made an osteoporosis model.
# Female 3-month-aged rats which had been excised of bilateral ovaries under sterilized condition were fed for a week until their wound was cured. Seventy healthy rats were selected and divided randomly into five groups of 14 rats. […] Group 1-5 were administered one time per day and 6 times per week and were also fed low-calcium diet and de-ionized water. The test period was 75 days. […] The bilateral femurs of rats were stripped off and stored in refrigerator. […] The right femur was stored for analysis of Ca content in femur.
# After pulled off soft tissue, the right femur was dried for 5 hours in oven at the temperature of 120° C. until its weight kept a constant (dry weight), then the product was baked for 6 hours in muffle furnace at the temperature of 800° C. until the weight of the product kept a constant which was the ash weight, namely the total amount of inorganic salts. After part of the ash was resolved in dilute hydrochloride, the calcium content of ash was measured by the method of EDTA titration. All data was expressed as X±SD(n). The significance of differences between groups were assessed using the "T-test" method of two groups of small specimen.
# preschool children = details: for children having normal BMDs: groups I and II
# Experimental: Seventy 3-6 years old healthy children whose bone mineral density were medium-lower at a central kindergarten in the suburban county of Beijing were selected as subjects, wherein there are 13 boys and 57 girls. All were healthy children who didn't have any metabolic diseases, liver or kidney diseases, bone wounds and abnormal diseases.
# Double blind method was employed during the observation. Every person was administered calcium preparation or placebo twice a day in a dosage of 1 bag each time. […] Group IV, established as blank-control group, was administered placebo which didn't contain calcium. All the above oral preparations were provided by Beijing Juneng Asian-Pacific Life Science Research Center.
# (1) Bone mineral density was measured before the test and 1.5 months and 3 months later after the administration of Ca supplements.
# The bone mineral density of radius in non-preferred hand was measured at the 1/3 point near the farther-end by a Model BMD400 Single-Photon absorptiometry produced conjointly by Institute of Atomic Energy, Ministry of Nuclear Industry, China and Institute of Broadcasting, Beijing, to obtain mean mineral bone density (BMD, g/cm^2). Each point was scanned twice with a scanning speed of 0.5 mm/sec.
# All data was analyzed with a SAS statistical software package.
# [4] = test system: castrated male rats with osteoporosis; details: for serum Ca: model 1.80 ± 0.37; for serum P: model 2.03 ± 0.48; for AKP level in serum (in Bessey-Loury unit): model 96.7 ± 26.4
# Experimental: as §1
# The pure synthetic low-calcium diet and apparatus used in this test were the same as in test II.
# rickets-mice [5] = assay: Preventing rickets in younger mice: body weight, dry weight, ash weight and total calcium content of femur; type: in vivo, mice of Kunming species; details: for dry weight of femur: model 0.099 ± 0.014; for total calcium content: model 24.81 ± 4.36; for ash weight: model 46.62 ± 9.38
# Experimental: (§2) The mice were bred for 60 days under conditions of avoiding light around-the-clock, at a temperature of 20-25° C. and a relative humility of 40-60% while the normal-control group mice were fed ordinary diet and water and were placed in non-dark room.
# (§3) The low-calcium diet used in this test was the same as that in Test II but VD in the vitamin mixture was replaced by glucose.
# (§4) Some weanling mice were placed in dark room and fed VD -deficient low-calcium diet and drunk de-ionized water for 60 days, thus a ricket model of baby mice was prepared. While other weanling mice were placed in non-dark room and fed ordinary diet and drunk tap water for 60 days, these mice were established as normal-control group.
# rickets-mice [6] = assay: Preventing rickets in younger mice: tibia strength (three-point bending); type: in vivo, mice of Kunming species; details: for breaking force (tibia): model 1.12 ± 0.37
# Experimental: as §2, §3, §4
compound,measurement,setting,value
O=C(O)[C@H](O)[C@@H](O)CO [calcium L-threonate],therapeutic effect on baby rickets (in words),rickets-babies; 300 mg element calcium,significantly superior to that of calcium carbonate
same,total symptom improvement,rickets-babies; four weeks,100%
same,"craniomalacia, babies with symptom after the beginning of test",rickets-babies; four weeks,0
same,"pillow-bald, babies with symptom after the beginning of test",rickets-babies; four weeks,0
same,"night-sweat, babies with symptom after the beginning of test",rickets-babies; four weeks,0
same,total symptom improvement,rickets-babies; two weeks,62.5%
same,rickets-babies free of symptoms,rickets-babies; two weeks of administration (concluding text),62%
same,"craniomalacia, babies with symptom after the beginning of test",rickets-babies; two weeks,2
same,"pillow-bald, babies with symptom after the beginning of test",rickets-babies; two weeks,7
same,"night-sweat, babies with symptom after the beginning of test",rickets-babies; two weeks,0
same,kinetic change of serum levels and pharmaceutical dynamic parameters (in words),[1],consistent with those of rats
same,serum Ca,ovariectomized rats; 100 mg element calcium/kg/d,1.60 ± 0.75 mmol/L
same,serum P,ovariectomized rats; 100 mg element calcium/kg/d,2.08 ± 0.66 mmol/L
same,serum Tr-ACP (in Bessey-Loury unit),ovariectomized rats; 100 mg element calcium/kg/d,8.8 ± 1.8 U/L
same,serum AKP (in Bessey-Loury unit),ovariectomized rats; 100 mg element calcium/kg/d,48.7 ± 8.0 U/L
same,serum Ca,ovariectomized rats; 200 mg element calcium/kg/d,2.35 ± 0.35 mmol/L
same,serum P,ovariectomized rats; 200 mg element calcium/kg/d,1.87 ± 0.58 mmol/L
same,serum Tr-ACP (in Bessey-Loury unit),ovariectomized rats; 200 mg element calcium/kg/d,7.9 ± 2.4 U/L
same,serum AKP (in Bessey-Loury unit),ovariectomized rats; 200 mg element calcium/kg/d,41.4 ± 14 U/L
same,serum Ca,ovariectomized rats; 300 mg element calcium/kg/d,2.30 ± 0.75 mmol/L
same,serum P,ovariectomized rats; 300 mg element calcium/kg/d,1.88 ± 0.58 mmol/L
same,serum Tr-ACP (in Bessey-Loury unit),ovariectomized rats; 300 mg element calcium/kg/d,7.2 ± 2.1 U/L
same,serum AKP (in Bessey-Loury unit),ovariectomized rats; 300 mg element calcium/kg/d,38.2 ± 10 U/L
same,AKP and Tr-ACP effect (in words),ovariectomized rats; chronic feeding,might decrease the AKP and Tr-ACP levels in serum
same,serum Ca effect (in words),ovariectomized rats; long-time feeding,markedly raise the serum calcium level
same,blood P effect (in words),"ovariectomized rats; rat, in vivo",no evidence
same,bone density F50,[2]; 100 mg element calcium/kg/d,0.289 ± 0.021 BMC/BW
same,bone density F20,[2]; 100 mg element calcium/kg/d,0.288 ± 0.021 BMC/BW
same,bone density F50,[2]; 200 mg element calcium/kg/d,0.282 ± 0.020 BMC/BW
same,bone density F20,[2]; 200 mg element calcium/kg/d,0.315 ± 0.032 BMC/BW
same,bone density F20,[2]; 300 mg element calcium/kg/d,0.314 ± 0.020 BMC/BW
same,bone density effect (in words),[2]; versus model-control group,markedly higher than that of model-control group rats
same,ash weight,[3]; 100 mg element calcium/kg/d,308.5 ± 11.4 mg
same,calcium content,[3]; 100 mg element calcium/kg/d,387.8 ± 91.9 mg/g dry weight
same,dry femur weight,[3]; 100 mg element calcium/kg/d,517 ± 21.8 mg
same,ash weight,[3]; 200 mg element calcium/kg/d,325.3 ± 23.5 mg
same,calcium content,[3]; 200 mg element calcium/kg/d,455.1 mg/g dry weight
same,dry femur weight,[3]; 200 mg element calcium/kg/d,553.0 ± 38.1 mg
same,ash weight,[3]; 300 mg element calcium/kg/d,332.4 ± 13.0 mg
same,calcium content,[3]; 300 mg element calcium/kg/d,445.7 mg/g dry weight
same,dry femur weight,[3]; 300 mg element calcium/kg/d,546.6 ± 22.8 mg
same,loss of bone matrix (in words),"[3]; rat, in vivo",retard the loss of bone matrix; also recorded: markedly control and inhibit the loss of bone matrix
same,bone mineral density,"preschool children; 2 bags/day of 150 mg element calcium, 1.5 month, before test 0.379 (threonate), 0.369 (carbonate)",0.424 ± 0.038 g/cm^2
same,extent of BMDs' increase,"preschool children; 2 bags/day of 150 mg element calcium, 1.5 months",11.87%
same,bone mineral density,"preschool children; 2 bags/day of 150 mg element calcium, 3 month, before test 0.379 (threonate), 0.369 (carbonate)",0.467 ± 0.027 g/cm^2
same,bone mineral density,"preschool children; 2 bags/day of 200 mg element calcium, 1.5 month, before test 0.362 ± 0.026",0.414 ± 0.027 g/cm^2
same,extent of BMDs' increase,"preschool children; 2 bags/day of 200 mg element calcium, 1.5 months",14.36%
same,bone mineral density,"preschool children; 2 bags/day of 200 mg element calcium, 3 month, before test 0.362 ± 0.026",0.460 ± 0.020 g/cm^2
same,extent of BMDs' increase,"preschool children; 2 bags/day of 200 mg element calcium, 3 months",25.41%
same,fraction of children whose BMD reached the normal level,preschool children; after 3 months,about 2/3
same,children having normal BMDs,preschool children; 1.5 months,about 12%
same,children having normal BMDs,preschool children; 3 months,~72%
same,serum Ca,[4]; 100 mg element calcium/kg/d,1.97 ± 0.52 mmol/L
same,serum P,[4]; 100 mg element calcium/kg/d,1.87 ± 0.39 mmol/L
same,AKP level in serum (in Bessey-Loury unit),[4]; 100 mg element calcium/kg/d,88.3 ± 13.7 U/L
same,serum Ca,[4]; 200 mg element calcium/kg/d,2.20 ± 0.60 mmol/L
same,serum P,[4]; 200 mg element calcium/kg/d,1.78 ± 0.55 mmol/L
same,AKP level in serum (in Bessey-Loury unit),[4]; 200 mg element calcium/kg/d,59.2 ± 12.0 U/L
same,serum Ca,[4]; 300 mg element calcium/kg/d,2.17 ± 0.62 mmol/L
same,serum P,[4]; 300 mg element calcium/kg/d,1.48 ± 0.55 mmol/L
same,AKP level in serum (in Bessey-Loury unit),[4]; 300 mg element calcium/kg/d,56.1 ± 6.2 U/L
same,serum calcium effect (in words),"[4]; rat, in vivo",significantly higher than that of model group
same,dry weight of femur,rickets-mice [5]; 200 mg calcium element,0.121 ± 0.010 g
same,total calcium content,rickets-mice [5]; 200 mg calcium element,36.23 mg
same,ash weight,rickets-mice [5]; 200 mg calcium element,69.44 ± 6.62 mg
same,dry weight of femur,rickets-mice [5]; 300 mg calcium element,0.131 ± 0.013 g
same,total calcium content,rickets-mice [5]; 300 mg calcium element,38.90 ± 13.78 mg
same,ash weight,rickets-mice [5]; 300 mg calcium element,74.73 ± 12.31 mg
same,Ca deposited in femur versus calcium gluconate (in words),rickets-mice [5]; P<0.05,much higher than that of calcium gluconate
same,"dry femur weight, ash weight and total calcium content (in words)",rickets-mice [5]; high and low dosage,markedly higher than those of the model group and were approximate to those of the normal-control group
same,breaking force (tibia),rickets-mice [6]; 200 mg calcium element,1.49 ± 0.38 kg
same,breaking force (tibia),rickets-mice [6]; 300 mg calcium element,1.59 ± 0.27 kg
same,breaking force of tibia (in words),"rickets-mice [6]; mouse, in vivo",significantly higher than those for the model group and were comparable with those for the normal-control group
